Patent publication US10000535B2, “Template-fixed peptidomimetics” (POLYPHOR LTD., priority 2007, dated 2018)
Non-standard residues stand in square brackets, D forms with d. Residues, ends and D or L forms follow the SMILES beside them. Aze = O=C(O)[C@@H]1CCN1

How the values were obtained:
Type in all cases: cell-based
CCR5 = CCR5 (Homo sapiens, UniProt P51681); test: Selectivity calcium flux assay, chemokine receptor panel; settings: at 10 μM
Method: (§1) Selectivity was measured using the calcium flux assay on a panel of human chemokine receptor bearing cell lines (CCR1, CCR2, CCR3, CCR4, CCR5, CCR6, CCR7, CCR8, CCR9, CCR10, CXCR1, CXCR2, CXCR2, CXCR4, CXCR6 and CXCCR1) using the same method as above

CCR4 = target: T1, CCR4 (Homo sapiens, UniProt P51679); test: as above; settings: at 10 μM
T1 sequence (P51679 1-360): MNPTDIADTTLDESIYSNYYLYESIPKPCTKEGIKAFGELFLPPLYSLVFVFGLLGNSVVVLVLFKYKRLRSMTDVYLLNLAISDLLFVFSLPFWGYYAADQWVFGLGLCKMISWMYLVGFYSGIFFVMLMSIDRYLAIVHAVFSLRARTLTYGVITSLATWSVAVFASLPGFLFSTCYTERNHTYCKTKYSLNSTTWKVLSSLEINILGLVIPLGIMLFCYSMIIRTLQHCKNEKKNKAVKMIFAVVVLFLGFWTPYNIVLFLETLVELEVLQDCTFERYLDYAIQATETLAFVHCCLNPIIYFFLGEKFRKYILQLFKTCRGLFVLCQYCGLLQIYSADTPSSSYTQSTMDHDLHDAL
Method: as §1

CXCR2 = target: T2, CXCR2 (Homo sapiens, UniProt P25025); test: as above; settings: at 10 μM
T2 sequence (P25025 1-360): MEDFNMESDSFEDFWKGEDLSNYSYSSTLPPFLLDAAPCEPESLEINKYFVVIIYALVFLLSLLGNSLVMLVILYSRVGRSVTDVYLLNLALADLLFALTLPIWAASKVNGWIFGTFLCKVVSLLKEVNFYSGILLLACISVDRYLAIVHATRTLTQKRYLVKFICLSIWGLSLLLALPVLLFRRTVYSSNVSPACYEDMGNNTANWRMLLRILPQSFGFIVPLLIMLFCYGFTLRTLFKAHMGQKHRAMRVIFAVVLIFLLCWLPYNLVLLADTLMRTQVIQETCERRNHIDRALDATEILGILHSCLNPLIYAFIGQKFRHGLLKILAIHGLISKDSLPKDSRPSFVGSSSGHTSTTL
Method: as §1

CCR2 = CCR2 (Homo sapiens, UniProt P41597); test: as above; settings: at 10 μM
Method: as §1

CCR6 = target: T3, CCR6 (Homo sapiens, UniProt P51684); test: as above; settings: at 10 μM
T3 sequence (P51684 1-374): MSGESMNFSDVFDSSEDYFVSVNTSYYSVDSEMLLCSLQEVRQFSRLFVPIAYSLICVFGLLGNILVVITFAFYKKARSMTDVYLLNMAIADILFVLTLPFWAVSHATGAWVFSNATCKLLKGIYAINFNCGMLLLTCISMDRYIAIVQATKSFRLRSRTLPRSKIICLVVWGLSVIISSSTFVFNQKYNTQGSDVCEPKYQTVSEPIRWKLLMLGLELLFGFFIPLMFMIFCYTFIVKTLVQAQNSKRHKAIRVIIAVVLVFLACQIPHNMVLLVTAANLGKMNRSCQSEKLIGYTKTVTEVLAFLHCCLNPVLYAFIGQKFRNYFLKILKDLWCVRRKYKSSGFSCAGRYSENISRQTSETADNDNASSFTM
Method: as §1

human CCR10 = target: T4, human CCR10 (Homo sapiens, UniProt P46092); test: Calcium flux antagonism assay with human CCL27; settings: at 10 μM
T4 construct: expressed in transfected cells; host or cells: mouse pre-B cell line 300-19
T4 sequence (P46092 1-362): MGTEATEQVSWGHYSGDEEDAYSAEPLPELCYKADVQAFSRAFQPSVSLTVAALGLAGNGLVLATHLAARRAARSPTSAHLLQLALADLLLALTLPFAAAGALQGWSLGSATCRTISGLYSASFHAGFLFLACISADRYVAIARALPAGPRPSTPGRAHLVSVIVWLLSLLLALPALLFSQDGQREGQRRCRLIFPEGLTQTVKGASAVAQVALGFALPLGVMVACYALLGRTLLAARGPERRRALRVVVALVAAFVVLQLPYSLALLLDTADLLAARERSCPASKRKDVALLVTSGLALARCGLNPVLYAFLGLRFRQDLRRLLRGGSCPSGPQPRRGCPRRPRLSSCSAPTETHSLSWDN
Method: (§2) The mouse pre-B cell line 300-19 was stably transfected with the cDNA encoding the human UTR2 receptor (GenBank Acc#NM_018949), and expression was confirmed with a positive calcium signal in response to human urotensin (Sigma Aldrich). Increases in intracellular calcium were monitored using a Flexstation 384 (Molecular Devices, Sunnyvale, Calif.). The cells were batch loaded with the Calcium 3 Assay kit (Molecular Devices) in assay buffer (Hanks Balanced salt solution, HBSS, 20 mM HEPES, pH 7.4, 0.1% BSA) for 1 h at room temperature and labeled cells were dispensed into either black 96 well or 384 well assay plates (Greiner). Calcium mobilization induced by urotensin or compounds was measured in the Flexstation 384 (excitation, […]) for 70 seconds. Agonist activity was determined by direct addition of ligand or peptides, while antagonists were identified by pre-incubation of compounds with cells prior to urotensin addition. A dose response curve (compound concentration versus % maximum response for urotensin) was determined for each active agonist and antagonist and was fitted to a four parameter logistic equation using SoftmaxPro 4.6 (Molecular Devices), from which EC50% and IC50% values were calculated.
Peptides for CCR10 (Marchese et. al. 1994, Homey et. al.) and CXCR3 (Loetscher et. al. 1998, Marchese et. al. 1995) antagonism were assayed in a mouse pre-B cell line 300-19 stably transfected with either human CCR10 or CXCR3 (Marchese et. al. 1995). Antagonism at each receptor was measured with a calcium flux assay in these cells as described above for UTR2 assays using human CCL27 and human CXCL10 (Cole et. al.) for CCR10 and CXCR3 respectively.
as §1

human CXCR3 = target: T5, human CXCR3 (Homo sapiens, UniProt P49682); test: Calcium flux antagonism assay with human CXCL10; settings: 300-19 cells with human CXCR3, read-out: IC50% (μM) ± SD, CXCR3 receptor
T5 construct: expressed in transfected cells; host or cells: mouse pre-B cell line 300-19
T5 sequence (P49682 1-368): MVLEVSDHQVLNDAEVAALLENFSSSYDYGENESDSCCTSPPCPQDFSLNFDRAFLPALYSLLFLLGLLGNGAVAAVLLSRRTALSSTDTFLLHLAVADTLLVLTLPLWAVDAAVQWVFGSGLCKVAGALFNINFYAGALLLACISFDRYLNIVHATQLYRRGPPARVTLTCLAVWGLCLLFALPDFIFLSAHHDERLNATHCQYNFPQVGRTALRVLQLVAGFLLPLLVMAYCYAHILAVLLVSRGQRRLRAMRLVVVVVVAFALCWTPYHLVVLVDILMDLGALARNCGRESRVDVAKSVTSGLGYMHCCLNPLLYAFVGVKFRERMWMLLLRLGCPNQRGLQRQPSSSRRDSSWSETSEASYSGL
Method: as §2, with “calculated. […]” for “calculated.”

Chain of CCR2 (P41597 whole entry): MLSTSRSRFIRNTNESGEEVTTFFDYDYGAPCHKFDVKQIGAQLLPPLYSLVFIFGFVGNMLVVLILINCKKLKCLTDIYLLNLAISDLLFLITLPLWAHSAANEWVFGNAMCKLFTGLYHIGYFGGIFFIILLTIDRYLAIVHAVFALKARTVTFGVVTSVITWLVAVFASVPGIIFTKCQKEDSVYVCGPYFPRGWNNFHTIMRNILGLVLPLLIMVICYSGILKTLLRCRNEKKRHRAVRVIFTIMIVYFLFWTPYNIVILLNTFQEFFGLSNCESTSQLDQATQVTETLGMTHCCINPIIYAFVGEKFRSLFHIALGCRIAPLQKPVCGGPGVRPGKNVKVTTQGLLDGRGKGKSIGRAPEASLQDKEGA
Chain of CCR5 (P51681 whole entry): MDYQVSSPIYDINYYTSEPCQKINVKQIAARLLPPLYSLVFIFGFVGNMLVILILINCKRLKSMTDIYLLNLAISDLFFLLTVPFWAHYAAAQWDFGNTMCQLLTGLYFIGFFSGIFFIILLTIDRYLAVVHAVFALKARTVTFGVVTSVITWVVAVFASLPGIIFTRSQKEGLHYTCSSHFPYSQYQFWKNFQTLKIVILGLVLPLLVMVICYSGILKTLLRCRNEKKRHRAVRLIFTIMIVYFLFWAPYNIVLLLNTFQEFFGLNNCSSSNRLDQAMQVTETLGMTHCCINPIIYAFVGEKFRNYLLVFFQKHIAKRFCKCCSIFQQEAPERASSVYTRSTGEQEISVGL

| Structure (SMILES) | selectivity against CCR5 (CCR5) | selectivity against CCR4 (CCR4) | selectivity against CXCR2 (CXCR2) | selectivity against CCR2 (CCR2) | selectivity against CCR6 (CCR6) | selectivity against CCR10 (human CCR10) | IC50 (human CXCR3) |
| --- | --- | --- | --- | --- | --- | --- | --- |
| N=C(N)NCCC[C@@H]1NC(=O)[C@H](Cc2c[nH]c3ccccc23)NC(=O)[C@H](Cc2ccc(O)cc2)NC(=O)[C@@H]2CCN2C(=O)[C@H]2CCCN2C(=O)CNC1=O [Example 15] (cyclo(YWRG[dP][Aze])) | highly selective | highly selective | highly selective | highly selective | highly selective | highly selective | 8.6 µM |
| C[C@@H]1NC(=O)[C@H](CCCNC(=N)N)NC(=O)[C@H](Cc2c[nH]c3ccccc23)NC(=O)[C@H](Cc2ccc(O)cc2)NC(=O)[C@@H]2CCN2C(=O)[C@H]2CCCN2C1=O [Example 16] (cyclo(YWRA[dP][Aze])) | highly selective | highly selective | highly selective | highly selective | highly selective | highly selective | 8.1 µM |
